Data taken from patent publication US7919508B2, “3-piperidinylisochroman-5-ols as dopamine agonists” (Aventis Pharmaceuticals Inc., priority 2004, dated 2011).
Counter-ions that a name gives are not always drawn.

Legend:
[1] = target: T1, human dopamine D1 receptor (Homo sapiens, UniProt P21728); test: [3H]-SCH-23390 binding to cloned human dopamine D1 receptors (CHO cell membranes); conditions: competitive binding, [3H]-SCH-23390, cloned human D1 in CHO membranes; read-out: D1 affinity Ki
T1 construct: A 1.4 Kb Hind III to Xho I fragment was subcloned into the vector pMMLV; expressed in transfected cells; host or cells: CHO cells, clone CHO-D1M#9 (plasmid pHD1MMLV), membranes

[2] = target: T2, D1 receptor (Homo sapiens, UniProt P21728); test: D1 Activation Adenylyl Cyclase Assay (cAMP FlashPlate, D1 transfected CHO cell line); type: cell-based; conditions: agonist activity at the D1 receptor, adenylate cyclase assay, D1 transfected CHO cell line; read-out: D1 EC50
T2 construct: expressed in transfected cells; host or cells: D1 transfected CHO cell line
Method: D1 Activation Adenylyl Cyclase Assay
Purpose: To measure D1-agonist activity compounds using an Adenylyl Cyclase Activation Flash Plate Assay from NEN.
Buffers: Activation and Detection buffers are provided from NEN: Catalog # SMP004A.
Maintenance of D1 transfected CHO cell line: • 1. Cells are grown in a 150 cc flask in an incubator at 37° C. with 5% CO2 for 2-3 days (4 maximum) until confluent. • 2. Aspirate off old media (Cells adhere to the plastic flask), wash 2× with sterile PBS. • 3. Add ˜5 mL of Trypsin EDTA (enough to cover bottom of the flask) for 5 min. at RT. • 4. Stop digestion with 15 mL of Media (Ham's F12 plus 10% FBS, 1% P/S, 400 μg/mL G418). • Bang flask on counter to release them from the flask. • 5. Add 2 mL of this to 30 mL of Media in a fresh flask. Return to incubator. Preparation of Cells for Assay: • 1. Loosen the cells with 5 mL Vercine (EDTA)/flask for 10 minutes in incubator. • 2. Add 20 mL of Serum-free media/flask. Transfer to 50-mL Falcon tube. • 3. Spin down cells at 1000 RPM for 5 minutes at 4° C. • 4. Aspirate off old media and resuspend in 5 mL of Serum-free media/plate to be done. • 5. Dilute 10 μL 1/10 in 90 μL Trypan Blue solution and count with a hemocytometer. • Count (live cells only) all four areas and average them. • Count X 10^5 equals cells/mL (including accounting for dilution in Trypan). • 6. Dilute to 50,000 cells/50 μL (1,000,000 cells/mL) in Serum-free media. • 7. Put 50 μL/well in Rows 3-12 of a cAMP FlashPlate. • 8. Put in incubator at 37° C. for 2-4 hours, to allow cells to recover and attach. Adenylyl Cyclase Activation Assay: • 1. Prepare the cAMP standards: • Add 130 μL/well of stimulation buffer to each row of a separate 96-well “standard” plate, 2 columns/plate. • Dilute stock cAMP standard 1/5 with stimulation buffer (final concentration is 1000 pmol/mL). Add 130 μL of this to row A. • Make 1/2 serial dilutions by adding 130 μL from each well to the next (A-G), mixing between each. • Final concentrations are: • A: 500, B: 250, C: 125, D: 62.5, E: 31.25, F: 15.6, G: 7.8, H: 0 pmol/mL. • Place 100 μL from each row from 2 columns of the standard plate into columns 1 and 2 of each “reaction” plate. • 2. Prepare the negative and positive control in the “reaction” plate: • Column 3, rows A-D, add 100 μL stimulation buffer (negative control). • Column 3, rows E-H, add 90 μL of stimulation buffer plus 10 μL of 200 μM APO (positive control, […]). (10 μL 10 mM APO, plus 490 μL stim. buffer=1/50 dilution.) • 3. Prepare the agonist compound dilutions in the “compound” plate: • Add 80 μL of stimulation buffer to row A (One column for each compound), and 90 μL of stimulation buffer to rows B—H. • Add 20 μL of 10 mM of each compound to appropriate row A. • Make 1/10 serial dilutions by adding 10 μL from each well to the next (A-H), mixing between each. • 4. […]. Prepare Detection/Stop buffer by adding 90 μL/plate of cAMP-^125I to 10 mL/plate plus 6 mL (for dead volume) of detection buffer. Steps 6-8 performed with the Multi-Mek. • 6. Add 50 μL to each well of the FlashPlate with CHO cells set up earlier. • 7. Incubate at RT for 8 minutes. • 8. Stop reaction by adding 100 μL of detection/stop buffer to each well. • 9. Cover with plastic film and incubate at RT for 16-24 hours (don't wait more than 24 hours). • 10. Count in a Packard Top-Count. Calculations: • 1. Raw signals generated by cAMP standard wells, without cells, are averaged at each cAMP concentration and converted to % B/Bo by dividing the raw signal at each cAMP concentration by the raw signal with no cAMP added. • 2. These values are used to generate a standard curve by plotting cAMP concentration versus % B/Bo. • 3. Raw data for each compound at each concentration is also converted to % B/B. by the same method. • 4. These values are then converted to pmol cAMP/mL using the standard curve. • 5. These cAMP values are then averaged across the three replicates for each compound concentration. • 6. […]

[3] = target: human dopamine D2Long (D2L) receptors (Homo sapiens, UniProt P14416)
human dopamine D2Long (D2L) receptors, sequence (P14416 whole entry): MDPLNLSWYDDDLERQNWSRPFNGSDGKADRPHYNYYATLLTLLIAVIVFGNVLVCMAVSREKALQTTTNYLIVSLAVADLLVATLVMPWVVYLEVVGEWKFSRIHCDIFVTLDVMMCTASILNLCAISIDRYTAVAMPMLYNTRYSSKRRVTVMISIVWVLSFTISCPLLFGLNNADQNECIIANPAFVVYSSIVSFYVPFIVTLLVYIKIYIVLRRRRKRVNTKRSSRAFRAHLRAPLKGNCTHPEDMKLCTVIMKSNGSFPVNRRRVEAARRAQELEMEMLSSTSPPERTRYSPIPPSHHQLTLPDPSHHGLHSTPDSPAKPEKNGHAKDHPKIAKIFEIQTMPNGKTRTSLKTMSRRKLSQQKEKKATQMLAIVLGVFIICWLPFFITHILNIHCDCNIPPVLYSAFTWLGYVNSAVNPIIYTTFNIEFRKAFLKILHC
Method: [N-Methyl-^3H]Spiroperidol Binding to Cloned Human Dopamine D2Long Receptors
This assay measures the in vitro activity of drugs on cloned human dopamine D2Long (D2L) receptors and predicts the direct dopamine-displacing properties of neuropsychiatric, cardiovascular and renal agents at human dopamine D2 receptors.
Cells were maintained in Ham's F12+10% Fetal Bovine Serum+Penicillin/Streptomycin (100 U/ml/100 μg/ml)+G418 (400 μg/ml) medium and were split using Trypsin-EDTA (1 ml/plate, room temperature for ˜2 min. or until cells have lifted off plates). • 2. […] Plates are incubated at 37° C.+5% CO2 for ˜3 days or until cells were confluent.
Cells are harvested by mechanical scraping, washed using PBS collected in 250 ml Corning polypropylene centrifuge tubes, spun down and resuspended in dH2O (final volume per harvest approximately 60 ml). Protein determination is made according to the method of Lowry (Biorad DC Assay Kit). Following the determination of the protein concentration, the protein is diluted into distilled water with 10% DMSO to the appropriate volume based on expression levels (Bmax). The concentrated protein is aliquoted into 1.5 ml screw top eppendorf tubes and placed into a −80° C. freezer.
Assay Requirement: 1 cryovial per two 96 well plates
0.5M Tris Wash Buffer, pH 7.7 • a) 44.4 g Tris HCl • 26.5 g Tris Base • q.s. to 1 Liter (0.5 M Tris buffer, pH 7.7 at 37° C.) • b) make a 1:10 dilution in distilled H2O (0.05 M. Tris buffer, pH 7.7) • 2. Tris Buffer containing physiological salts • a) Stock buffer • NaCl 7.014 g • KCl 0.372 g • CaCl2 0.222 g • MgCl2 0.204 g • q.s. To 100 ml with 0.5 M. Tris Buffer • b) Dilute 1:10 in distilled H2O • This yields 0.05 M. Tris HCl, pH 7.7, containing NaCl (120 mM), KCl (5 mM), CaCl2 (2 mM) and MgCl2 (1 mM) • Optional: add 0.1% ascorbic acid and check pH (in assays with compounds that may oxidize. • c) 1.0% polyethyleneimine stock in 0.5M Tris (reagent 1.a) • Dilute 1:10 in distilled H2O Binding Assay • 750 μl Tissue • 150 μl [^3H]NMSP • 100 μl vehicle (for total binding) or 30 μM (−)
eticlopride (for nonspecific binding) or appropriate drug concentration.
The 96-Well Packard Unifilters GF/B are incubated for >1 h at 25° C. in 0.1% polyethylenimine. The cold tissue is added last and mixed on a orbital shaker for a few seconds and is then incubated at 37° C. for 30 min in a shaking water bath. The assay is stopped by rapid filtration through Packard Unifilter plates. The filter membranes are then washed with 15 ml of ice-cold 0.05 M Tris buffer. The filters are then dried (˜15 min. under a heat lamp or incubated for 15 min. in a 60° C. oven) and a bottom seal is applied. Then 40 μl of Packard Microscint 20 scintillation cocktail are added and a permanent topseal (Type P) is applied and heat sealed. The plates are placed in a Packard Topcount.
Specific binding is defined as the difference between total binding and the binding in the presence of 3 μM S-(−)-eticlopride. Total binding is approximately 10% of the total added ligand. […] The percent inhibition at each drug concentration is the mean of duplicate determinations.

T2 sequence (P21728 whole entry): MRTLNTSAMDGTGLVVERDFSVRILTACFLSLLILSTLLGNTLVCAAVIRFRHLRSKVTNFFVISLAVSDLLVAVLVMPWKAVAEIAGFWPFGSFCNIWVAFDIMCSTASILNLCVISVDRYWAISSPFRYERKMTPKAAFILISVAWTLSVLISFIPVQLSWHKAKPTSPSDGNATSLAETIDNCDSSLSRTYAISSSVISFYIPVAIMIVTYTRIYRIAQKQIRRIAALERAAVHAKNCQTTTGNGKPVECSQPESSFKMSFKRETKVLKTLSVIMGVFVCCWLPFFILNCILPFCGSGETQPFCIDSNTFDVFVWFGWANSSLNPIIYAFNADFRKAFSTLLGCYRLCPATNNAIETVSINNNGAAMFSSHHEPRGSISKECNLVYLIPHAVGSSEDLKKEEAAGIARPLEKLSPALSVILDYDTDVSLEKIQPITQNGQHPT
T1 sequence (P21728 whole entry, the tested form may be a part): as the sequence (P21728 whole entry) above

Row | SMILES | Ki [1] | EC50 [2] | Ki [3]
1 | CCCCN1CCC([C@@H]2Cc3c(ccc(C)c3O)[C@H](CN)O2)CC1 [Example 33, (1R,3S)-1-Aminomethyl-3-(1-butyl-piperidin-4-yl)-6-methyl-isochroman-5-ol dihydrochloride] | 70 nM | 13 nM | ≥ 10000 nM
2 | Cc1ccc2c(c1O)C[C@@H](C1CCN(CC3CCCCC3)CC1)O[C@H]2CN [Example 34, (1R,3S)-1-Aminomethyl-3-(1-cyclohexylmethyl-piperidin-4-yl)-6-methyl-isochroman-5-ol dihydrochloride] | 47 nM | 66 nM | ≥ 10000 nM
3 | Cc1ccc2c(c1O)C[C@@H](C1CCN(Cc3ccccc3Cl)CC1)O[C@H]2CN [Example 35, (1R,3S)-1-Aminomethyl-3-[1-(2-chloro-benzyl)-piperidin-4-yl]-6-methyl-isochroman-5-ol dihydrobromide] | 42 nM | 44 nM | 96 nM
4 | Cc1ccc2c(c1O)C[C@@H](C1CCN(Cc3ccccc3F)CC1)O[C@H]2CN [Example 36, (1R,3S)-1-Aminomethyl-3-[1-(2-fluoro-benzyl)-piperidin-4-yl]-6-methyl-isochroman-5-ol dihydrobromide] | 42.8 nM | 62 nM | 749 nM
5 | Cc1ccc2c(c1O)C[C@@H](C1CCN(Cc3cccc(Cl)c3)CC1)O[C@H]2CN [Example 37, (1R,3S)-1-Aminomethyl-3-[1-(3-chloro-benzyl)-piperidin-4-yl]-6-methyl-isochroman-5-ol dihydrobromide] | 17.9 nM | 110 nM | 356 nM
6 | Cc1ccc2c(c1O)C[C@@H](C1CCN(CC3CC3)CC1)O[C@H]2CN [Example 38, (1R,3S)-1-Aminomethyl-3-(1-cyclopropylmethyl-piperidin-4-yl)-6-methyl-isochroman-5-ol dihydrochloride] | 53 nM | 10 nM | ≥ 10000 nM
7 | Cc1ccc2c(c1O)C[C@@H](C1CCN(Cc3cccc4ccccc34)CC1)O[C@H]2CN [Example 39, (1R,3S)-1-Aminomethyl-6-methyl-3-(1-naphthalen-1-ylmethyl-piperidin-4-yl)-isochroman-5-ol dihydrochloride] | 113 nM | 750 nM | ≥ 10000 nM
8 | Cc1ccc2c(c1O)C[C@@H](C1CCN(CCC(C)C)CC1)O[C@H]2CN [Example 41, (1R,3S)-1-Aminomethyl-6-methyl-3-[1-(3-methyl-butyl)-piperidin-4-yl]-isochroman-5-ol dihydrochloride] | 114 nM | 250 nM | ≥ 10000 nM
9 | Cc1ccc2c(c1O)C[C@@H](C1CCN(CCO)CC1)O[C@H]2CN [Example 43, (1R,3S)-1-Aminomethyl-3-[1-(2-hydroxy-ethyl)-piperidin-4-yl]-6-methyl-isochroman-5-ol dihydrochloride] | 86.1 nM | 110 nM | ≥ 10000 nM
10 | Cc1ccc2c(c1O)C[C@@H](C1CCN(Cc3ccc4ccccc4c3)CC1)O[C@H]2CN [Example 45, (1R,3S)-1-Aminomethyl-6-methyl-3-(1-naphthalen-2-ylmethyl-piperidin-4-yl)-isochroman-5-ol dihydrochloride] | 96.4 nM | 110 nM | ≥ 10000 nM
11 | Cc1ccc2c(c1O)C[C@@H](C1CCN(Cc3ccc(Oc4ccccc4)cc3)CC1)O[C@H]2CN [Example 46, (1R,3S)-1-Aminomethyl-6-methyl-3-[1-(4-phenoxy-benzyl)-piperidin-4-yl]-isochroman-5-ol dihydrochloride] | 49 nM | 100 nM | 215 nM
12 | Cc1ccc2c(c1O)C[C@@H](C1CCN(Cc3cccs3)CC1)O[C@H]2CN [Example 47, (1R,3S)-1-Aminomethyl-6-methyl-3-(1-thiophen-2-ylmethyl-piperidin-4-yl)-isochroman-5-ol dihydrochloride] | 66.4 nM | 170 nM | ≥ 10000 nM
13 | Cc1ccc2c(c1O)C[C@@H](C1CCN(Cc3ccc(C(C)C)cc3)CC1)O[C@H]2CN [Example 48, (1R 3S)-1-Aminomethyl-3-[1-(4-isopropyl-benzyl)-piperidin-4-yl]-6-methyl-isochroman-5-ol dihydrochloride] | 37.4 nM | 26 nM | ≥ 10000 nM
14 | Cc1ccc2c(c1O)C[C@@H](C1CCN(Cc3ccc(-c4ccccc4)cc3)CC1)O[C@H]2CN [Example 49, (1R,3S)-1-Aminomethyl-3-(1-biphenyl-4-ylmethyl-piperidin-4-yl)-6-methyl-isochroman-5-ol dihydrochloride] | 48.2 nM | 78 nM | 310 nM
15 | Cc1ccc2c(c1O)C[C@@H](C1CCN(Cc3cccnc3)CC1)O[C@H]2CN [Example 53, (1R,3S)-1-Aminomethyl-6-methyl-3-(1-pyridin-3-ylmethyl-piperidin-4-yl)-isochroman-5-ol dihydrochloride] | 60.7 nM | 15 nM | ≥ 10000 nM
16 | Cc1ccc2c(c1O)C[C@@H](C1CCN(Cc3ccc4ccccc4n3)CC1)O[C@H]2CN [Example 55, (1R,3S)-1-Aminomethyl-6-methyl-3-(1-quinolin-2-ylmethyl-piperidin-4-yl)-isochroman-5-ol dihydrochloride] | 53.6 nM | 16 nM | 449 nM
17 | Cc1ccc2c(c1O)C[C@@H](C1CCN(Cc3cnc4ccccc4c3)CC1)O[C@H]2CN [Example 56, (1R,3S)-1-Aminomethyl-6-methyl-3-(1-quinolin-3-ylmethyl-piperidin-4-yl)-isochroman-5-ol dihydrochloride] | 30.5 nM | 12 nM | ≥ 10000 nM
18 | Cc1ccc2c(c1O)C[C@@H](C1CCN(Cc3ccnc4ccccc34)CC1)O[C@H]2CN [Example 57, (1R,3S)-1-Aminomethyl-6-methyl-3-(1-quinolin-4-ylmethyl-piperidin-4-yl)-isochroman-5-ol dihydrochloride] | 59.6 nM | 12 nM | ≥ 10000 nM
19 | Cc1ccc2c(c1O)C[C@@H](C1CCN(Cc3ccc(Cl)cc3Cl)CC1)O[C@H]2CN [Example 59, (1R,3S)-1-Aminomethyl-3-[1-(2,4-dichloro-benzyl)-piperidin-4-yl]-6-methyl-isochroman-5-ol dihydrochloride] | 46.2 nM | 12 nM | 443 nM
20 | Cc1ccc2c(c1O)C[C@@H](C1CCN(Cc3ccc(Cl)c(Cl)c3)CC1)O[C@H]2CN [Example 60, (1R,3S)-1-Aminomethyl-3-[1-(3,4-dichloro-benzyl)-piperidin-4-yl]-6-methyl-isochroman-5-ol dihydrochloride] | 11.8 nM | 160 nM | 364 nM
